{"source": "paper PMC6240096", "about": "“A hPSC-based platform to discover gene-environment interactions that impact human β-cell and dopamine neuron survival” (Nature Communications, 2018)", "key": {"mouse pancreatic β-cells": {"tested_on": "mouse pancreatic β-cells", "experiment": "CD-1 mice treated by intraperitoneal injection for 5 days", "type": "in vivo", "procedure": "All animal work has been approved by IACUC committee of Weill Cornell Medical College. CD-1 adult male mice were treated with different doses of propargite or vehicle (corn oil) through intraperitoneal injection for 5 days. Fasting blood glucose level were monitored every day using Abbott FreeStyle Lite blood glucose monitoring system. Then, CD-1 adult male mice were treated with 12 mg/kg propargite or vehicle (corn oil) through intraperitoneal injection for 5 days. Fasting blood was collected via tail nicking following 14–16 h of fasting with ad libitum access to drinking water. Serum mouse insulin levels were assessed by ELISA (80-INSMR-CH01, Alpco). Mice were then killed. The pancreases were embedded in OCT. The tissue was then sectioned at 5 μm for immunohistochemistry staining analysis of DNA damage marker γ-H2A.X and β-cell marker INS."}, "GSTT1+/+ INS+ cells": {"tested_on": "GSTT1+/+ INS+ cells", "experiment": "Inhibition curve on INS+ cells derived from GSTT1+/+ H1 hESCs", "type": "cell-based, human", "conditions": "H1 hESC-derived, n = 3; read-out: IC50 of GSTT1+/+-1 INS+ cells", "procedure": "(§1) hESCs-derived INS^+ cells, MSCs[43], neurons, and hepatocytes[44] were derived based on the reported protocols and re-plated on 96-well plates with Accutase digestion. Cardiomyocytes (CMs) were differentiated from H9-MYH6: mCherry reporter line, based on the reported protocol. After overnight incubation, cells were treated with DMSO or different doses of hit compounds for 4 days. After fixation, the cells were stained with markers for each cell type. DAPI was used to stain cell nuclei. Plates were analyzed by ImageXpress^MICRO Automated High-Content Analysis System.\nCRISPR sgRNA sequences were designed using the web resources available at http://www.genome-engineering.org/. The target sequences are listed in Supplementary Table 2. Each target sequence was cloned into the pX330-U6-Chimeric_BB-CBh-hSpCas9 vector (Addgene plasmid #42230) to make the gene targeting constructs. To knockout the target genes, two sgRNAs were validated using the surveyor assay in 293T cells, and we chose 1 sgRNA-construct plasmid for further experiments. After validation, H1 or INS^GFP/W HES3 cells were dissociated using Accutase (STEM CELL) and electroporated (8 × 10^5 cells per sample) with 4 μg sgRNA-construct plasmids using Human Stem Cell Nucleofector^TM solution (Lonza) following manufacturer’s instructions. […] A portion of the cells was analyzed by DNA sequencing. […]"}, "EndoC-βH1 cells": {"tested_on": "EndoC-βH1 cells", "experiment": "EndoC-βH1 cells carrying sgGSTT1, PI staining", "type": "cell-based, human", "conditions": "1.6 μM propargite", "procedure": "Two sgRNAs targeting two different loci on GSTT1 gene: sgGSTT1-1 and sgGSTT1-2 and a sgRNA targeting GFP (sgGFP)[46] which has no specific targets on the human genome and was used as a control, were cloned into lentiCRISPRv2 vectors (Addgene plasmid # 52961)[47]. EndoC-βH1 cells were infected with the lentivirus carrying Cas9 and sgRNAs. After 2 days of selection with 1 μg/ml puromycin, western blots were used to validate the knockout efficiency."}, "A1AT+ hepatocytes": {"tested_on": "A1AT+ hepatocytes", "experiment": "Inhibition curve on hESC-derived hepatocytes", "type": "cell-based, human", "conditions": "cell survival rate, 4 days, n=3", "procedure": "as §1\nSupplementary Figure 4. Assessment of the toxic effect of propargite on different type […]\n(a) Flow cytometry char acterization of CD29+ and CD73+ mesenchymal stem cells (MSCs) derived from H1 hESCs. (b-c) microscope image (b) and flow cytometry (c) characterization of cardiomyocytes expressing MYH6+ derived from a MYH6:mCherry reporter hESC line. (d-e) Immunocytochemistry characterization of MAP2+/TUJ1+ and HuC/D+/MAP2+ neurons (d) and A1AT+/ASGPR1+ hepatocytes (e) derived from H1 hESCs. All the cells were counterstained by DAPI (blue). Scale bars, 100 µm. (f) Inhibition curve of propargite on pancreatic β-like cells, MSCs, cardiomyocytes, neurons, and hepatocytes derived from hESCs, and BJ-fibroblasts (n=3). Values presented as mean±S.D. […]"}, "primary human islets": {"tested_on": "primary human islets", "experiment": "Primary human islets, INS and propidium iodide staining", "type": "cell-based", "conditions": "4 days treatment", "excerpt": "Fig. 1 A high-content screen identifies propargite as a compound that induces pancreatic β-cell death. a Scheme of pancreatic β-cell differentiation and high-content chemical screen. b Chemical structure of two hit compounds: Propargite and Vacor. c Inhibitory curve and IC50 of propargite or Vacor on INS^+ and INS^− cells (n = 8). d, e Immunocytochemistry analysis (d) and survival rate (e) of H1-derived glucose-responding INS^+ and INS^− cells treated with different doses of propargite (n = 8). Pancreatic β-like cells were stained for INS (green) and all cells were counterstained by DAPI (blue). Scale bars, 100 μm. The survival rate was calculated by dividing the average number of cells in propargite-treated conditions by the average number of cells in the DMSO control. f, g Representative live images (f) and fold-change (g) of INS^w/GFP HES3-derived INS-GFP^+ cells treated with 1.6 μM propargite or DMSO control at different time points compared to initial time 0 (n = 3). Scale bars, 100 μm. h, i, j Representative images (h) and cell survival rate (i) or cell death rate (j) of DMSO or propargite-treated human primary islets (n = 3). Pancreatic β-cells were stained with the INS antibody (green) and dead cells were stained with propidium iodide (PI) (red). Scale bars, 200 μm. Scale bars for higher resolution (Zoom) images, […]. Pancreatic β-cell death rate was calculated by defining percentages of INS^+ PI^+ cells in INS^+ cells, and non-β-cell death rate was calculated by percentages of INS^−PI^+ cells in INS^− cells."}, "[1]": {"conditions": "12 mg/kg daily for 5 days, intraperitoneal, CD-1 mice"}}}
{"substance": "2-(4-tert-butylphenoxy)-cyclohexyl prop-2-yne-1-sulfonate [propargite]", "values": [{"measurement": "blood glucose level", "setting": "mouse pancreatic β-cells; [1]", "value": "lightly increased"}, {"measurement": "body weight", "setting": "mouse pancreatic β-cells; [1]", "value": "without significantly affecting"}, {"measurement": "insulin levels in the plasma of fasted mice", "setting": "mouse pancreatic β-cells; [1]", "value": "significant reduction"}, {"measurement": "percentage of γ-H2AX+/INS+ in INS+ cells (DNA damage)", "setting": "mouse pancreatic β-cells; 12 mg/kg, mouse pancreas", "value": "significant increase"}, {"measurement": "IC50", "setting": "GSTT1+/+ INS+ cells", "value": 2.15, "unit": "µM"}, {"measurement": "INS+ cell death in EndoC-βH1 cells expressing sgGSTT1", "setting": "EndoC-βH1 cells", "value": "significant increase"}, {"measurement": "IC50", "setting": "A1AT+ hepatocytes", "value": 13, "unit": "µM"}, {"measurement": "number of INS+ cells in primary human islets", "setting": "primary human islets", "value": "decreased"}, {"measurement": "percentage of PI+/INS+ cells in INS+ cells", "setting": "primary human islets", "value": "increased percentage"}]}
